Measured values published in US20120128630A1, “1-(6 MEMBERS AZO-HETEROCYCLIC)-PYRROLIN-2-ONE COMPOUNDS AS INHIBITORS OF HEPATITIS C NS5B POLYMERASE, THE PHARAMACEUTICAL COMPOSITION THEREOF AND THEIR THERAPEUTIC USE” (priority 2009, published 2012).
Like-named read-outs stand apart in the source and are kept apart here.

Columns and labels:
HCV NS5B genotype 1b = target: T1, HCV NS5B genotype 1b (Hepatitis C virus genotype 1b, UniProt Q9WMX2); assay: 3D-SCREEN assay (NS5B 3D-Screen platform, luciferase reporter gene); format: cell-based
T1 construct: The protein was expressed with a 21 amino acid C-terminal deletion to remove transmembrane domain; expressed in transfected cells; host or cells: Huh-7
Summary of the method: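 Huh-7 cells transiently co-transfected with NS5BΔ21/Gal4-DBD, 3D-Sensor peptide I4/VP16 and firefly luciferase reporter. Compounds added 2 h after seeding, 1% DMSO final, 24 h incubation. Luciferase luminescence read; % inhibition relative to no-compound signal.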

HCV replicon Luc Neo ET = assay: Luc Neo ET Replicon assay; format: cell-based, Hepatitis C virus; conditions: Table 3, titled RdRp enzyme assay results, EC50_Replicon LucneoET, 72 hours with compound, luciferase
Summary of the method: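 Huh-7-derived Luc Neo ET bicistronic HCV replicon cells (adaptive mutations E1202G, T1280I, K1846T) treated 24 h after seeding with compounds for 72 h, 1% DMSO final, 37 °C. Firefly luciferase luminescence read after lysis; % inhibition from background-corrected RLU relative to untreated signal.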

[1] = target: T2, HCV NS5B with a deletion of the 21 C-terminal amino acids (Hepatitis C virus genotype 1b, UniProt Q9WMX2); assay: HCV NS5B RdRp enzyme assay; format: biochemical
T2 construct: purified HCV NS5B with a deletion of the 21 C-terminal amino acids
Description: The assay was performed in a total volume of 20 μl containing 20 mM Tris pH 7.5, 1 mM DTT, 17 U RNasin, 50 mM NaCl, 10% DMSO, 5 mM MgCl2, 0.5 mM each of the 3 NTPs (ATP, CTP, GTP), 86 nM RNA template (341 nt from the 3′ end of HCV minus strand RNA), 50 nM of purified HCV NS5B with a deletion of the 21 C-terminal amino acids and 2 μCi [^3H]UTP (46 Ci.mmol^−1). The reaction mixture was incubated for 2 h at 25-30° C. and the radiolabeled products were precipitated by the addition of 10% TCA. The radioactivity incorporated was quantified by counting in a Wallac scintillation counter. Increasing concentrations of tested compounds were added to the complete RdRp reaction mixture. After a two hour incubation period at 25-30° C., the amount of labeled product was determined as above. Two types of control reactions were done: a negative control corresponding to the complete mixture without enzyme and a positive control with enzyme but without compounds. In each experiment, test and control samples are in duplicate.
The level of activity with each compound concentration was expressed with the formulae: […]
The IC50 value was calculated as the compound concentration reducing polymerase activity by 50%.

[2] = EC50_3DS_NS5B, Table 2, titled Replicon assay results

Structure (SMILES)	melting point [°C]	EC50 (HCV NS5B genotype 1b; EC50_3DS_NS5B, Table 1, 3D-SCREEN assay results, Huh-7 cells, 24 hours with compound, firefly luciferase reporter) [nM]	EC50 (HCV replicon Luc Neo ET; Hepatitis C virus, 72 h) [nM]	inhibition at 10 µM [1] [%]	EC50 (HCV NS5B genotype 1b; [2]) [nM]	EC50 (HCV NS5B genotype 1b; read-out: EC50_3DS_NS5B, Table 2, titled Replicon assay results) [nM]	EC50 (HCV replicon Luc Neo ET) [nM]
Cc1ccc(N2C(=O)C(O)=C(C(=O)c3ccc(C(C)C)cc3)C2c2ccc(C(F)(F)F)cc2)nn1 (stereo not shown) [Example 63, 3-hydroxy-4-(4-isopropyl-benzoyl)-1-(6-methyl-pyridazin-3-yl)-5-(4-trifluoromethyl-phenyl)-1,5-dihydro-pyrrol-2-one]	268 to 270	60	100	50			
Cc1cnc(N2C(=O)C(O)=C(C(=O)c3ccc(C(C)C)cc3)C2c2ccc(OC(F)(F)F)cc2)cn1 (stereo not shown) [Example 128, 3-hydroxy-4-(4-isopropyl-benzoyl)-1-(5-methyl-pyrazin-2-yl)-5-(4-trifluoromethoxy-phenyl)-1,5-dihydro-pyrrol-2-one]	266 to 268		< 10000		< 1000		
COc1ccc(N2C(=O)C(O)=C(C(=O)c3ccc(C(C)C)cc3)C2c2ccc(OC(F)(F)F)cc2)nn1 (stereo not shown) [Example 129, 3-hydroxy-4-(4-isopropyl-benzoyl)-1-(6-methoxy-pyridazin-3-yl)-5-(4-trifluoromethoxy-phenyl)-1,5-dihydro-pyrrol-2-one]	271		< 10000		< 1000		
CC(C)c1ccc(C(=O)C2=C(O)C(=O)N(c3cccn(C)c3=O)C2c2ccc(OC(F)(F)F)cc2)cc1 (stereo not shown) [Example 130, 3-[3-hydroxy-4-(4-isopropyl-benzoyl)-2-oxo-5-(4-trifluoromethoxy-phenyl)-2,5-dihydro-pyrrol-1-yl]-1-methyl-1H-pyridin-2-one]	207		< 10000		< 10000		
Cc1ccc(N2C(=O)C(O)=C(C(=O)c3ccc(CC(C)C)cc3)C2c2ccc(OC(F)(F)F)cc2)nn1 (stereo not shown) [Example 131, 3-hydroxy-4-(4-isobutyl-benzoyl)-1-(6-methyl-pyridazin-3-yl)-5-(4-trifluoromethoxy-phenyl)-1,5-dihydro-pyrrol-2-one]	260		< 10000		< 1000		
Cc1ccc(N2C(=O)C(Cl)=C(C(=O)c3ccc(C(C)C)cc3)C2c2ccc(OC(F)(F)F)cc2)nn1 (stereo not shown) [Example 138, 3-chloro-4-(4-isopropyl-benzoyl)-1-(6-methyl-pyridazin-3-yl)-5-(4-trifluoromethoxy-phenyl)-1,5-dihydro-pyrrol-2-one]	293		< 10000		< 10000		
C=C(C)c1ccc(C(=O)C2=C(O)C(=O)N(c3ccc(C)nn3)C2c2ccc(OC(F)(F)F)cc2)cc1 (stereo not shown) [Example 142, 3-hydroxy-4-(4-isopropenyl-benzoyl)-1-(6-methyl-pyridazin-3-yl)-5-(4-trifluoromethoxy-phenyl)-1,5-dihydro-pyrrol-2-one]	253		< 10000		< 1000		
Cc1ccc(N2C(=O)C(O)=C(C(=O)c3ccc(C(C)C)cc3)C2c2ccc(OC3CCOCC3)cc2)nn1 (stereo not shown) [Example 143, 3-hydroxy-4-(4-isopropyl-benzoyl)-1-(6-methyl-pyridazin-3-yl)-5-[4-(tetrahydro-pyran-4-yloxy)-phenyl]-1,5-dihydro-pyrrol-2-one]	275		< 10000		< 10000		
CC(C)c1ccc(C(=O)C2=C(O)C(=O)N(c3ccc(O)nn3)C2c2ccc(OC(F)(F)F)cc2)cc1 (stereo not shown) [Example 159, 3-hydroxy-1-(6-hydroxy-pyridazin-3-yl)-4-(4-isopropyl-benzoyl)-5-(4-trifluoromethoxy-phenyl)-1,5-dihydro-pyrrol-2-one]	255		< 10000		< 1000		
C=C(C)c1ccc(C2C(C(=O)c3ccc(C(C)C)cc3)=C(O)C(=O)N2c2ccc(C)nn2)cc1 (stereo not shown) [Example 160, 3-hydroxy-5-(4-isopropenyl-phenyl)-4-(4-isopropyl-benzoyl)-1-(6-methyl-pyridazin-3-yl)-1,5-dihydro-pyrrol-2-one]	274		< 10000		< 1000		
CC(C)c1ccc(C(=O)C2=C(O)C(=O)N(c3ccc(OCc4ccccc4)nn3)C2c2ccc(OC(F)(F)F)cc2)cc1 (stereo not shown) [Example 161, 1-(6-benzyloxy-pyridazin-3-yl)-3-hydroxy-4-(4-isopropyl-benzoyl)-5-(4-trifluoromethoxy-phenyl)-1,5-dihydro-pyrrol-2-one]	269		< 10000		< 1000		
Cc1ccc(N2C(=O)C(O)=C(C(=O)c3ccc(C(C)C)cc3)C2c2ccc(OC(C)C)nc2)nn1 (stereo not shown) [Example 165, 3-hydroxy-5-(6-isopropoxy-pyridin-3-yl)-4-(4-isopropyl-benzoyl)-1-(6-methyl-pyridazin-3-yl)-1,5-dihydro-pyrrol-2-one]	282		< 1000		< 1000		
Cc1ccc(N2C(=O)C(O)=C(C(=O)c3ccc(C(C)C)cc3)C2c2ccc(OC(C)C)nc2)nn1.Cl (stereo not shown) [Example 167, 3-hydroxy-5-(6-isopropoxy-pyridin-3-yl)-4-(4-isopropyl-benzoyl)-1-(6-methyl-pyridazin-3-yl)-1,5-dihydro-pyrrol-2-one; hydrochloride]	280					< 1000	< 1000
Cc1ccc(N2C(=O)C(O)=C(C(=O)c3ccc(C(C)C)cc3)[C@H]2c2ccc(OC(F)(F)F)cc2)nn1 [Example 188, 3-hydroxy-4-(4-isopropyl-benzoyl)-1-(6-methyl-pyridazin-3-yl)-5(R)-(4-trifluoromethoxy-phenyl)-1,5-dihydro-pyrrol-2-one]	217		< 100		< 100		
Cc1ccc(N2C(=O)C(O)=C(C(=O)c3ccc(C(C)C)cc3)[C@@H]2c2ccc(OC(F)(F)F)cc2)nn1 [Example 189, 3-hydroxy-4-(4-isopropyl-benzoyl)-1-(6-methyl-pyridazin-3-yl)-5(S)-(4-trifluoromethoxy-phenyl)-1,5-dihydro-pyrrol-2-one]	221		< 10000		< 10000		
Cc1ccc(N2C(=O)C(O)=C(C(=O)c3ccc(C(C)C)cc3)[C@H]2c2ccc(C(F)(F)F)cc2)nn1 [Example 191, 3-hydroxy-4-(4-isopropyl-benzoyl)-1-(6-methyl-pyridazin-3-yl)-5(R)-(4-trifluoromethyl-phenyl)-1,5-dihydro-pyrrol-2-one]	251		< 100		< 100		
Cc1ccc(C(=O)C2=C(O)C(=O)N(c3ccc(C)nn3)[C@@H]2c2ccc(OC(F)(F)F)cc2)cc1 [Example 199, 3-hydroxy-4-(4-methyl-benzoyl)-1-(6-methyl-pyridazin-3-yl)-5(R)-(4-trifluoromethoxy-phenyl)-1,5-dihydro-pyrrol-2-one]	215		< 1000		< 1000		
